Data taken from ChEMBL document CHEMBL4619708, “Synthesis and biological evaluation of isoliquiritigenin derivatives as a neuroprotective agent against glutamate mediated neurotoxicity in HT22 cells” (2020).
Activity calls are given as the source filed them. The rule behind the calls is not given here.

Columns and labels:
HT-22 [1] = assay: Neuroprotection against glutamate-induced oxidative stress in mouse HT22 cells assessed as increase in cell viability pretreated with glutamate for 24 hrs followed by compound addition by calcein AM and PI staining based assay; format: functional
HT-22 [2] = assay: Neuroprotection against glutamate-induced oxidative stress in mouse HT22 cells assessed as increase in cell viability at 50 to 100 uM pretreated with glutamate for 24 hrs followed by compound addition by calcein AM and PI staining based assay; format: functional
HT-22 [3] = assay: Neuroprotection against glutamate-induced oxidative stress in mouse HT22 cells assessed as reduction in bax protein level at 100 uM by Western blot analysis; format: functional, cell-based
HT-22 [4] = assay: Neuroprotection against glutamate-induced oxidative stress in mouse HT22 cells assessed as decrease in translocation of AIF to nucleus at 100 uM by Western blot analysis; format: functional, cell-based
HT-22 [5] = assay: Neuroprotection against glutamate-induced oxidative stress in mouse HT22 cells assessed as reduction in phosphorylated p38 protein level at 100 uM by Western blot analysis; format: functional, cell-based
HT-22 [6] = assay: Neuroprotection against glutamate-induced oxidative stress in mouse HT22 cells assessed as increase in cell viability at 100 uM pretreated with glutamate for 24 hrs followed by compound addition by calcein AM and PI staining based assay; format: functional
HT-22 [7] = assay: Neuroprotective activity in mouse HT22 cells assessed as apoptotic or dead cells by annexin V and PI staining based assay (reference value: 2.58%); format: functional
HT-22 [8] = assay: Neuroprotection against glutamate-induced oxidative stress in mouse HT22 cells assessed as reduction in Ca2+ influx pretreated with glutamate for 8 hrs followed by compound addition by Fluo3-AM staining based fluorescent microscopic method; format: functional, cell-based
HT-22 [9] = assay: Neuroprotection against glutamate-induced oxidative stress in mouse HT22 cells assessed as increase in bcl2 protein level at 100 uM by Western blot analysis; format: functional, cell-based
HT-22 [10] = assay: Neuroprotection against glutamate-induced oxidative stress in mouse HT22 cells assessed as increase in cell viability by MTT assay; format: functional, cell-based
HT-22 [11] = assay: Neuroprotection against glutamate-induced oxidative stress in mouse HT22 cells assessed as apoptotic or dead cells pretreated with glutamate for 8 hrs followed by compound addition by annexin V and PI staining based assay (reference value: 2.58%); format: functional
HT-22 [12] = assay: Neuroprotection against glutamate-induced oxidative stress in mouse HT22 cells assessed as reduction in phosphorylated JNK protein level at 100 uM by Western blot analysis; format: functional, cell-based
HT-22 [13] = assay: Neuroprotection against glutamate-induced oxidative stress in mouse HT22 cells assessed as reduction in phosphorylated ERK protein level at 100 uM by Western blot analysis; format: functional, cell-based
HT-22 [14] = assay: Neuroprotection against glutamate-induced oxidative stress in mouse HT22 cells assessed as reduction in cellular ROS level by DCFDA staining based FACS analysis; format: functional, cell-based
HT-22 [15] = assay: Neuroprotection against glutamate-induced oxidative stress in mouse HT22 cells assessed as reduction in Ca2+ influx pretreated with glutamate for 8 hrs followed by compound addition by Fluo3-AM staining based fluorescent microscopic method relative to control; format: functional; design: scale not given: the % may be the effect or the level left
HT-22 [16] = assay: Neuroprotection against glutamate-induced oxidative stress in mouse HT22 cells assessed as increase in cell viability at 3 to 6 uM pretreated with glutamate for 24 hrs followed by compound addition by calcein AM and PI staining based assay; format: functional

Compound | Activity (HT-22 [1]) | further results
O=C(/C=C/c1cccc(O)c1)c1ccc(O)cc1O | inactive | –
O=C(/C=C/c1ccccc1)c1ccc(O)cc1O | inactive | –
COc1ccc(/C=C/C(=O)c2ccc(O)cc2O)cc1 | inactive | –
O=C(/C=C/c1ccc(O)cc1)c1ccc(O)cc1O | inactive | Activity (HT-22 [2]): inactive
CN(C)c1ccc(/C=C/C(=O)c2ccc(O)cc2O)cc1 | Active | Activity (HT-22 [3]): Active; Activity (HT-22 [4]): Active; Activity (HT-22 [5]): Active; Activity (HT-22 [6]): Active; Activity (HT-22 [7]): 6.01%; Activity (HT-22 [8]): Active; Activity (HT-22 [9]): Active; Activity (HT-22 [10]): Active; Activity (HT-22 [11]): 6.4%; Activity (HT-22 [12]): Active; Activity (HT-22 [13]): Active; Activity (HT-22 [14]): Active; Activity (HT-22 [15]): 50%
CCn1c2ccccc2c2cc(/C=C/C(=O)c3ccc(O)cc3O)ccc21 | inactive | –
COc1ccc(/C=C/C(=O)c2ccc(O)cc2O)cc1OC | inactive | –
COc1cc(Br)c(/C=C/C(=O)c2ccc(O)cc2O)cc1OC | inactive | Activity (HT-22 [16]): Active
O=C(/C=C/c1ccc2[nH]ccc2c1)c1ccc(O)cc1O | Active | –
O=C(/C=C/c1ccc(-c2ccccc2)cc1)c1ccc(O)cc1O | inactive | –
O=C(/C=C/c1ccc(Cl)cc1)c1ccc(O)cc1O | inactive | –
COc1cccc(/C=C/C(=O)c2ccc(O)cc2O)c1 | inactive | –
O=C(/C=C/c1ccc(C(F)(F)F)cc1)c1ccc(O)cc1O | inactive | –
COc1cc(/C=C/C(=O)c2ccc(O)cc2O)cc(OC)c1Br | inactive | –
COc1cc(/C=C/C(=O)c2ccc(O)cc2O)cc(OC)c1OC | inactive | –
CC(=O)N[C@@H](CS)C(=O)O | inactive | –
COc1cc(/C=C/C(=O)c2ccc(O)cc2O)ccc1O | inactive | –
O=C(/C=C/c1ccc2ccccc2c1)c1ccc(O)cc1O | inactive | –
O=C(/C=C/c1ccc(O)c(O)c1)c1ccc(O)cc1O | inactive | –
